Reference: ChEMBL document CHEMBL5370593, “Discovery and In Vitro Characterization of SPL028: Deuterated N,N-Dimethyltryptamine” (ACS Med Chem Lett, 2023)

Assays:
[1] = target: T1, 5-hydroxytryptamine receptor 7 (Homo sapiens, UniProt P34969); assay: Displacement of [3H] LSD from human recombinant 5-HT7 receptor expressed in CHO-K1 cells assessed as inhibition constant incubated for 120 mins by spectrophotometric analysis; type: cell-based
[2] = target: T1, 5-hydroxytryptamine receptor 7; assay: Displacement of [3H] LSD from human recombinant 5-HT7 receptor expressed in CHO-K1 cells incubated for 120 mins by spectrophotometric analysis; type: cell-based
[3] = target: 5-hydroxytryptamine receptor 1B (Homo sapiens, UniProt P28222); assay: Displacement of [3H] GR125743 from human recombinant 5-HT1B receptor expressed in […] cells incubated for 90 mins by spectrophotometric analysis; type: cell-based
Sequence of 5-hydroxytryptamine receptor 1B (P28222 whole entry): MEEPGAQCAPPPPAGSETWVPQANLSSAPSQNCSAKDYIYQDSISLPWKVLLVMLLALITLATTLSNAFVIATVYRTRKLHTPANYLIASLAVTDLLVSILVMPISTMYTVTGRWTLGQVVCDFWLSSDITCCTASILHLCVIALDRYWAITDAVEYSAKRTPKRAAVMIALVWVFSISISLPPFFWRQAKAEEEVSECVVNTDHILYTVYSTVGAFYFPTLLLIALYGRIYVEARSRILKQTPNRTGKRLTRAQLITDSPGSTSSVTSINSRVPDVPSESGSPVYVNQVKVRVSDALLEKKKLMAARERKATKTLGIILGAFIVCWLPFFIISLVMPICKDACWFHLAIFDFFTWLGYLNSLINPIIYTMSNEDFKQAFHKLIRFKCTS

[4] = target: T2, Alpha-1D adrenergic receptor (Homo sapiens, UniProt P25100); assay: Displacement of [3H] prazosin from human recombinant adrenergic alpha-1d receptor expressed in HEK293 cells incubated for 60 mins by spectrophotometric analysis; type: cell-based
T2 sequence (P25100 whole entry): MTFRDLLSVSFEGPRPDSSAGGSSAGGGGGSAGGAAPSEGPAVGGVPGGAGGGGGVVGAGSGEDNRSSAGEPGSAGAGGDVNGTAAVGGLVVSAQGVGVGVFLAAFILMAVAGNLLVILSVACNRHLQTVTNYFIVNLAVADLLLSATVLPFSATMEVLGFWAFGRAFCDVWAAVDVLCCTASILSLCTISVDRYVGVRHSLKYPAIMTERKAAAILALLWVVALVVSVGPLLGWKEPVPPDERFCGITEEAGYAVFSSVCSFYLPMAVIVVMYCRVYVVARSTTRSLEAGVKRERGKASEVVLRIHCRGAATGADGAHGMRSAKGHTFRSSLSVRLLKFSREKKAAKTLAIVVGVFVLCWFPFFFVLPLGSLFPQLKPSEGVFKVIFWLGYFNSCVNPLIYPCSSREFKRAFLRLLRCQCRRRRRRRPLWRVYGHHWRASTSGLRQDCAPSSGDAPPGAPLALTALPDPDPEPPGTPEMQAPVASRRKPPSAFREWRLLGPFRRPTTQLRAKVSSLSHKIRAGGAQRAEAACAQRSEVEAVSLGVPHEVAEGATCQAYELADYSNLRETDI

[5] = target: T3, Alpha-1A adrenergic receptor (Homo sapiens, UniProt P35348); assay: Displacement of [3H] prazosin from human recombinant adrenergic alpha-1a receptor expressed in […] cells incubated for 60 mins by spectrophotometric analysis; type: cell-based
T3 sequence (P35348 whole entry): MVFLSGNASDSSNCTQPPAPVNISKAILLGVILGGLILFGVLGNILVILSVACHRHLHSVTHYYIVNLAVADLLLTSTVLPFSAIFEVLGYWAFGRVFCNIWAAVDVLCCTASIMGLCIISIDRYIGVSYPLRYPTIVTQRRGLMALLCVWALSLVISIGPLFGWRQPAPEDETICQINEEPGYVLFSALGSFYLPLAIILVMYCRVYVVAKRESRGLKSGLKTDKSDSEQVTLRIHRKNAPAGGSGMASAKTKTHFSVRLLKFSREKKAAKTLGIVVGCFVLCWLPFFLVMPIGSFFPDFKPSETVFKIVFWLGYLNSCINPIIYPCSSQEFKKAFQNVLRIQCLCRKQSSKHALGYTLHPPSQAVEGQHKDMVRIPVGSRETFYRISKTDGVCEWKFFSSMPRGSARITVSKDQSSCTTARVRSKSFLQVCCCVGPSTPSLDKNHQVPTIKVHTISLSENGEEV

[6] = target: T4, Alpha-2A adrenergic receptor (Homo sapiens, UniProt P08913); assay: Displacement of [3H]-rauwolscine from human recombinant adrenergic alpha-2A receptor expressed in CHO-K1 cells incubated for 60 mins by spectrophotometric analysis; type: cell-based
T4 sequence (P08913 whole entry): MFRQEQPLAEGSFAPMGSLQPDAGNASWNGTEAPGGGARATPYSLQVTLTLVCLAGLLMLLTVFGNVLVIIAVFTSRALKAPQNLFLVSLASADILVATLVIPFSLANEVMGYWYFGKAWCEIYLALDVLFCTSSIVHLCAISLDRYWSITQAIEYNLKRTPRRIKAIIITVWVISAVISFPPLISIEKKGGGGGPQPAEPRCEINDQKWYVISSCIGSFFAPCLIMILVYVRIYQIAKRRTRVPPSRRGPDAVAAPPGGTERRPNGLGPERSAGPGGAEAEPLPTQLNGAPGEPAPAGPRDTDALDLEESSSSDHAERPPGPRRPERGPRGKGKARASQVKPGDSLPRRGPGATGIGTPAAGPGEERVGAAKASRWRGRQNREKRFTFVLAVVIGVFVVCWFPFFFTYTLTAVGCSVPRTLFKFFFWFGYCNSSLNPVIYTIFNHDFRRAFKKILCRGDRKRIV

[7] = Displacement of [3H] idazoxan from imidazoline receptor 2 (unknown origin) by spectrophotometric analysis; set-up: species or system Homo sapiens
[8] = target: T3, Alpha-1A adrenergic receptor; assay: Displacement of [3H] prazosin from human recombinant adrenergic alpha-1a receptor expressed in […] cells assessed as inhibition constant incubated for 60 mins by spectrophotometric analysis; type: cell-based
[9] = target: 5-hydroxytryptamine receptor 5A (Homo sapiens, UniProt P47898); assay: Displacement of [3H] LSD from human recombinant 5-HT5A receptor expressed in CHO-K1 cells assessed as inhibition constant incubated for 60 mins by spectrophotometric analysis; type: cell-based
Sequence of 5-hydroxytryptamine receptor 5A (P47898 whole entry): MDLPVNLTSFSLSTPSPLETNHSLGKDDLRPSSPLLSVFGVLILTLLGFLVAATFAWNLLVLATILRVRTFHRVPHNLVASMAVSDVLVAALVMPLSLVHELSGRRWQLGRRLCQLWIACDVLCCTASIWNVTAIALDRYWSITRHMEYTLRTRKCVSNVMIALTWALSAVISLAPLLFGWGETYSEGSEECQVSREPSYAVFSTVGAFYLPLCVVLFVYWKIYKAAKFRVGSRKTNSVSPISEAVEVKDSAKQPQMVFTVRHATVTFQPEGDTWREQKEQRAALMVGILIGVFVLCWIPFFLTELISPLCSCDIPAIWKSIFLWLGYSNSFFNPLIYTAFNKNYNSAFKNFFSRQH

[10] = Plasma protein binding in human assessed as unbound fraction by rapid equilibrium dialysis analysis; type: ADME, cell-free
[11] = target: T5, 5-hydroxytryptamine receptor 2A (Homo sapiens, UniProt P28223); assay: Displacement of [3H] ketanserin from human recombinant 5-HT2A receptor expressed in CHO-K1 cells incubated for 60 mins by spectrophotometric analysis
T5 sequence (P28223 whole entry): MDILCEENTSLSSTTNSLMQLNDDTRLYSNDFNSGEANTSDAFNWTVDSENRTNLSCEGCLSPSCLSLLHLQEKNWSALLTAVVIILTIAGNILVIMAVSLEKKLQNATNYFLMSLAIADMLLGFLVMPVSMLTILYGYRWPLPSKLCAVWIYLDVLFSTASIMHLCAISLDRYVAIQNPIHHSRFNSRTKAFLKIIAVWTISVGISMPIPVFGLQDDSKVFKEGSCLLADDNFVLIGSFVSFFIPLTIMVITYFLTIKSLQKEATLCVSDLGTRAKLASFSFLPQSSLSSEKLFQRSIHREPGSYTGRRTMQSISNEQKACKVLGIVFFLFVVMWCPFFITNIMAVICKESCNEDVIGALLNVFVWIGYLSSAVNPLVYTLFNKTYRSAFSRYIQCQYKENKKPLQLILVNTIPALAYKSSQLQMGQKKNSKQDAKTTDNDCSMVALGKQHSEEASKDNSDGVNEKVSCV

[12] = Metabolic stability in human liver mitochondrial fraction assessed as mean half life measured per million cells incubated upto 60 mins by LC-MS/MS analysis; type: ADME, mitochondria, Mitochondria
[13] = Metabolic stability in human hepatocytes assessed as intrinsic clearance measured per million cells incubated upto 60 mins by LC-MS/MS analysis; type: ADME, cell-based, Hepatocyte; settings: read-out: CLH
[14] = target: T5, 5-hydroxytryptamine receptor 2A; assay: Displacement of [3H] ketanserin from human recombinant 5-HT2A receptor expressed in CHO-K1 cells assessed as inhibition constant incubated for 60 mins by spectrophotometric analysis
[15] = Metabolic stability in human liver mitochondrial fraction assessed as mean intrinsic clearance measured per million cells incubated upto 60 mins by LC-MS/MS analysis; type: ADME, mitochondria, Mitochondria; settings: 1 h
[16] = target: 5-hydroxytryptamine receptor 6 (Homo sapiens, UniProt P50406); assay: Displacement of [3H] LSD from human recombinant 5-HT6 receptor expressed in human HeLa cells assessed as inhibition constant incubated for 120 mins by spectrophotometric analysis; type: cell-based
Sequence of 5-hydroxytryptamine receptor 6 (P50406 whole entry): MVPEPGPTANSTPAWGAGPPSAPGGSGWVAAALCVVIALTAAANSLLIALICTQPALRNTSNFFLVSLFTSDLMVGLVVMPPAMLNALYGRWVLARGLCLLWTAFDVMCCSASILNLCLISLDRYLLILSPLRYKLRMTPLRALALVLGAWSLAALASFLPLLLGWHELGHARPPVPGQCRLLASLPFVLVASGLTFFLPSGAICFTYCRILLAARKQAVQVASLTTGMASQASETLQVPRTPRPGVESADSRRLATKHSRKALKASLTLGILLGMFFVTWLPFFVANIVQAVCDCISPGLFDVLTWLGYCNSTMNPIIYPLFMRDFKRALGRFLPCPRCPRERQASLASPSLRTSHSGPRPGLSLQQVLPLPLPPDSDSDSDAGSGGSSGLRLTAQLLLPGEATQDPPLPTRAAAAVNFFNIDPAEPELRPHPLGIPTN

[17] = target: Amine oxidase [flavin-containing] A (Homo sapiens, UniProt P21397); assay: Inhibition of human recombinant MAO-A expressed in insect cells assessed as inhibition of 4-hydroxyquinoline formation using kynuramine as substrate incubated for 75 mins by spectrophotometric analysis; set-up: species or system Insect cell
Sequence of Amine oxidase [flavin-containing] A (P21397 whole entry): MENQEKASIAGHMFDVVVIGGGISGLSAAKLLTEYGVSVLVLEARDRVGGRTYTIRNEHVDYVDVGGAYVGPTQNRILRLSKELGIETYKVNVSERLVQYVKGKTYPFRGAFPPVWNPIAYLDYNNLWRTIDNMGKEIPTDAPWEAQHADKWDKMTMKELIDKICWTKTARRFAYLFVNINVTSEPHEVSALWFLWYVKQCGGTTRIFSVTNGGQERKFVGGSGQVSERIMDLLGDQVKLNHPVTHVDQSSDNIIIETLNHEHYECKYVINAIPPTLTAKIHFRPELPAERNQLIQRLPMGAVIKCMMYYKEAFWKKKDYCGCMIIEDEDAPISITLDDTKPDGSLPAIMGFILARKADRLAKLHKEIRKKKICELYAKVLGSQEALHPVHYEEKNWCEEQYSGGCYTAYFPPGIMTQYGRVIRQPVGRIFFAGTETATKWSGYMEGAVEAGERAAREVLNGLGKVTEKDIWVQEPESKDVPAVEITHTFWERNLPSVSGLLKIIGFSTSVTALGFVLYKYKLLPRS

[18] = Metabolic stability in human hepatocytes assessed as half life measured per million cells incubated upto 60 mins by LC-MS/MS analysis; type: ADME, cell-based, Hepatocyte
[19] = target: Neuronal acetylcholine receptor; alpha3/beta4 (Homo sapiens, UniProt P30926+P32297); assay: Displacement of [125I]-epibatidine from human recombinant nAChR alpha3beta4 receptor expressed in CHO-K1 cells assessed as inhibition constant incubated for 60 mins by spectrophotometric analysis; type: cell-based
Sequence of Neuronal acetylcholine receptor; alpha3/beta4 (P30926 whole entry): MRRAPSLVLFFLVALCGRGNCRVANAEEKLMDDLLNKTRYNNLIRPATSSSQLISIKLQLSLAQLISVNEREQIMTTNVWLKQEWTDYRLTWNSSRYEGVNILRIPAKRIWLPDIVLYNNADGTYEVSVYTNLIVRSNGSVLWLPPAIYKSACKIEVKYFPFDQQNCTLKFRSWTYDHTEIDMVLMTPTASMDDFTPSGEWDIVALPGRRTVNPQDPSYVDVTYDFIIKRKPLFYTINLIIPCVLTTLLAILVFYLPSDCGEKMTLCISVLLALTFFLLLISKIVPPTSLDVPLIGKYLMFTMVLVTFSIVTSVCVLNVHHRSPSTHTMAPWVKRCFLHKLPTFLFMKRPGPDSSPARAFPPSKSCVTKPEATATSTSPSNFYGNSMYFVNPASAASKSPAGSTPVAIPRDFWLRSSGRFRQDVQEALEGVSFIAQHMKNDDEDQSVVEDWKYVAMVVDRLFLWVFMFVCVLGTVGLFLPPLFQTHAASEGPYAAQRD
Sequence of Neuronal acetylcholine receptor; alpha3/beta4 (P32297 whole entry): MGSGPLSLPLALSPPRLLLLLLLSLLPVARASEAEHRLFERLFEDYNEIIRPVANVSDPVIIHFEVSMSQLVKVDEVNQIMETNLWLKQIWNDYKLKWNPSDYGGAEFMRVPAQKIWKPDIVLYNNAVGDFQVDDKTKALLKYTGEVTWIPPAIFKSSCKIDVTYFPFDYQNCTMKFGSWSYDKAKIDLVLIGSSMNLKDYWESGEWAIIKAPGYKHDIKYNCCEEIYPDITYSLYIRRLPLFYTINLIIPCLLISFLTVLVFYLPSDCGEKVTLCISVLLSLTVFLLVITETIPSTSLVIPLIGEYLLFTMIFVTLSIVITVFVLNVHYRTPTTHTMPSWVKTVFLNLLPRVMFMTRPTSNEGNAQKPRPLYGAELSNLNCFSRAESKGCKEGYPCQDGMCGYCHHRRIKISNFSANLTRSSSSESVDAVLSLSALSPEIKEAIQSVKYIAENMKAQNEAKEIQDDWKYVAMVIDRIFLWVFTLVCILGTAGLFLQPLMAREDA

T1 sequence (P34969 whole entry): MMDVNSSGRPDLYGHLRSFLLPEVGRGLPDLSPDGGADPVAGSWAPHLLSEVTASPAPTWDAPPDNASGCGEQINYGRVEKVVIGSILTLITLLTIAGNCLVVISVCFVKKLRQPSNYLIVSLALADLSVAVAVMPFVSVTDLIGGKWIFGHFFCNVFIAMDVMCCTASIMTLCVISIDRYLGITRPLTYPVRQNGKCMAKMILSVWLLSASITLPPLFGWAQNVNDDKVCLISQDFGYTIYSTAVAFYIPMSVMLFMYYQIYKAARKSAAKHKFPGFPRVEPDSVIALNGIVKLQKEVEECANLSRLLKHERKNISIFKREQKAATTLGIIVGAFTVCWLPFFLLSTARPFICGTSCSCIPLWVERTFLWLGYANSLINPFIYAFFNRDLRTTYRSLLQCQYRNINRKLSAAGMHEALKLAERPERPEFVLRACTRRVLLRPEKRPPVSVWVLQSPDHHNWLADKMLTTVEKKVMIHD

| Compound | Ki [1] | IC50 [2] | IC50 [3] | IC50 [4] | IC50 [5] | IC50 [6] | IC50 [7] | Ki [8] | Ki [9] | fraction unbound [10] | IC50 [11] | half-life [12] | hepatocyte CLint [13] | Ki [14] | CLH [15] | Ki [16] | IC50 [17] | half-life [18] | Ki [19] |
| --- | --- | --- | --- | --- | --- | --- | --- | --- | --- | --- | --- | --- | --- | --- | --- | --- | --- | --- | --- |
| CN(C)CCc1c[nH]c2ccccc12.O=C(O)/C=C/C(=O)O | 70 nM | 120 nM | 2420 nM | 3.07 µM | 580 nM | 2220 nM | 1930 nM | 280 nM | 1710 nM | 0.68 | 150 nM | 8.3 min | 16.6 µL/min/1e6 cells | 40 nM | 168 µL/min | 560 nM | 1180 nM | 190 min | 3.03 µM |
| O=C(O)/C=C/C(=O)O.[2H]C([2H])(Cc1c[nH]c2ccccc12)N(C)C | 50 nM | 90 nM | 1990 nM | 3.26 µM | 990 nM | 3030 nM | 2600 nM | 480 nM | 1710 nM | 0.7 | 220 nM | 85.1 min | 7.3 µL/min/1e6 cells | 60 nM | 16.5 µL/min | 500 nM | 1500 nM | 223 min | 3.18 µM |
